The source of these data is patent US6984643B2, “2,5-substituted pyrimidine derivatives-CCR-3 receptor antagonists” (Roche Palo Alto LLC, priority 2002, dated 2006).

As a reminder, the IC50 is the point on the concentration scale where inhibition reaches its midpoint.

This experiment has as its target T1, CCR-3 receptor (Homo sapiens, UniProt P51677).
T1 construct: expressed in transfected cells; host or cells: L1.2 (murine pre-B lymphoma line)
T1 sequence (P51677 1-355): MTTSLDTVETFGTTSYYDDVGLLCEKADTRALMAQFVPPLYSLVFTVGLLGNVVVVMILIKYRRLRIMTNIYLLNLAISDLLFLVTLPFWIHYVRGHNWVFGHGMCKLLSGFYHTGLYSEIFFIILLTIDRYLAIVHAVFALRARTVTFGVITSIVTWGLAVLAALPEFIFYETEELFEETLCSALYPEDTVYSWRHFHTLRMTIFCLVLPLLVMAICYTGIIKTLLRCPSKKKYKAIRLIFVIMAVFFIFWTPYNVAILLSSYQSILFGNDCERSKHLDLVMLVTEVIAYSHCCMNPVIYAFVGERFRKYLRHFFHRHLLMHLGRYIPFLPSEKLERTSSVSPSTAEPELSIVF
Kind of experiment: CCR-3 Receptor Binding Assay in vitro (inhibition of 125I eotaxin binding to CCR-3 L1.2 transfectant cells). The settings on record: concentration reducing 125I-eotaxin binding to CCR-3 L1.2 transfected cells by 50%; read-out: CCR-3 IC50. The protocol: The CCR-3 antagonistic activity of the compounds of the invention was determined by their ability to inhibit the binding of ^125I eotaxin to CCR-3 L1.2 transfectant cells (see Ponath, P. D. et al., J. Exp. Med., Vol. 183, 2437-2448, (1996)).
The assay was performed in Costar 96-well polypropylene round bottom plates. Test compounds were dissolved in DMSO and then diluted with binding buffer (50 mM HEPES, 1 mM CaCl2, 5 mM MgCl2, 0.5% bovine serum albumin (BSA), 0.02% sodium azide, pH 7.24) such that the final DMSO concentration was 2%. Each well was filled with 25 μl of the test solution or only buffer with DMSO (control samples) followed by the addition of 25 μl of ^125I-eotaxin (100 pmol) (NEX314, New England Nuclear, Boston, Mass.) and 1.5×10^5 of the CCR-3 L1.2 transfected cells in 25 μl binding buffer. The final reaction volume was 75 μl.
After incubating the reaction mixture for 1 h at room temperature, the reaction was terminated by filtering the reaction mixture through polyethylenimine treated Packard Unifilter GF/C filter plate (Packard, Chicago, Ill.). The filters were washed four times with ice cold wash buffer containing 10 mM HEPES and 0.5M sodium chloride (pH 7.2) and dried at 65° C. for approximately 10 min. 25 μl/well of Microscint-20™ scintillation fluid (Packard) was added and the radioactivity retained on the filters was determined by using the Packard TopCount™.
The IC50 value (concentration of test compound required to reduce ^125I-eotaxin binding to the CCR-3 L 1.2 transfected cells by 50%) for compounds in Table I of the invention was between 0.02 and 200 μM, preferably between 0.02 and 10 μM.
Take `COc1cccc(-c2cnc(OCC(=O)NCC3CCCN(Cc4ccc5c(c4)OCO5)C3)nc2)c1` (stereo not drawn) [Compound 62, N-(1-benzo[1,3]-dioxol-5-ylmethyl-piperidin-3-ylmethyl)-2-[5-(3-methoxy-phenyl)-pyrimidin-2-yloxy]-acetamide]: the half-maximal inhibitory concentration (IC50) came out at 128000 nM.
As for `COc1ccc(-c2cnc(SCC(=O)NCC3CCCN(Cc4cc(Br)c(Br)s4)C3)nc2)cc1OC` (stereo not drawn) [Compound 63, N-[1-(4,5-dibromo-thiophen-2-ylmethyl)-piperidin-3-ylmethyl]-2-[5-(3,4-dimethoxy-phenyl)-pyrimidin-2-ylsulfanyl]-acetamide], the IC50 came out at 66 nM.
As for `COc1ccc(-c2cnc(SCC(=O)NCC3CCCN(Cc4cc(Cl)c(Cl)s4)C3)nc2)cc1OC` (stereo not drawn) [Compound 64, N-[1-(4,5-dichloro-thiophen-2-ylmethyl)-piperidin-3-ylmethyl]-2-[5-(3,4-dimethoxy-phenyl)-pyrimidin-2-ylsulfanyl]-acetamide], the figure is 81 nM.
